Where no end group is shown, it is not given here.
How the values were obtained:
[1] = tested on: penicillin-resistant Streptococcus pneumoniae (PRSP); type: cell-based; settings: for MIC, PRSP: MIC range over 20 PRSP isolates, CLSI broth microdilution, CAMHB with 5% laked horse blood, 18–24 hrs 37°C 5% CO2, peptides 1.96–250 μg/ml, three independent experiments; for EP %, PRSP: effective percentage: proportion of isolates inhibited within the MIC range
Source text: (§1) All bacterial strains were obtained from Department of Medical Microbiology, University of Malaya. Clinical isolates were previously obtained from University of Malaya Medical Centre and maintained in the laboratory. Sheep blood agar was used for pneumococcal cultivation purpose. Nutrient agar was used for cultivating E. coli ATCC 25922, S. aureus ATCC 25923, and P. aeruginosa ATCC 15442, Acinetobacter baumanii ATCC 15308, and one clinical isolate for each MRSA, E. cloacae, Citrobacter spp., and K. pneumoniae. For antimicrobial testing, Mueller-Hinton agar (MHA) and cationically-adjusted MHB (CAMHB) were prepared according to the Clinical and Laboratory Standard Institute guidelines. MHA for S. pneumoniae was supplemented with 5% (v/v) defibrinated sheep blood and 5% laked horse blood for CAMHB. All bacterial cultures were stored in multiple vials in brain heart infusion broth supplemented with 10% (v/v) glycerol at −80°C to avoid repeated freeze-thawed cycles on the cells. All freeze-stocked strains were passaged twice prior to experimentation.
(§2) Procedures were performed to determine the MIC of peptides according to the CLSI guidelines[21] against 60 pneumococcal isolates which consisted of 20 isolates each for PRSP, PISP, and PSSP. Strains were grown for 18–24 hrs at 37°C under 5% CO2. Direct suspension of the colonies were made in CAMHB and adjusted to OD625 0.08–0.1 which corresponds to 1 ~ 2 × 10^8 CFU/ml followed by serial ten-fold dilutions to give 1 × 10^6 CFU/ml. Fifty microliters of bacterial suspension was then aliquoted to 96-well round bottom microtiter plates containing equal volume of serially diluted peptides to give final concentrations of peptides encompassing the range of 1.96–250 μg/ml. […] The plates were incubated for 18–24 hrs at 37°C under 5% CO2. MIC was read as the concentration of peptide producing complete inhibition on the visible growth of the test organism. Results were pooled from three independent experiments. MIC range was defined as the range of concentrations where the peptides produce detectable antimicrobial activity. Effective percentage (EP) was the proportion of pneumococcal isolates inhibited within the MIC range. Since the isolates tested were obtained prior to 2008 where major revision in antibiotic susceptibility breakpoints were introduced, thus the pneumococci were defined according to the PEN susceptibility breakpoint (prior 2008) which corresponds to the PEN (oral penicillin V) breakpoint of the revised criteria.

[2] = tested on: penicillin-susceptible S. pneumoniae (PSSP); type: cell-based, Streptococcus pneumoniae; settings: for MIC, PSSP: MIC range over 20 PSSP isolates, CLSI broth microdilution, CAMHB with 5% laked horse blood, 18–24 hrs 37°C 5% CO2, peptides 1.96–250 μg/ml, three independent experiments; for EP %, PSSP: effective percentage: proportion of isolates inhibited within the MIC range
Source text: as §1, §2

[3] = tested on: penicillin-intermediate S. pneumoniae (PISP); type: cell-based, Streptococcus pneumoniae; settings: for MIC, PISP: MIC range over 20 PISP isolates, CLSI broth microdilution, CAMHB with 5% laked horse blood, 18–24 hrs 37°C 5% CO2, peptides 1.96–250 μg/ml, three independent experiments; for EP %, PISP: effective percentage: proportion of isolates inhibited within the MIC range
Source text: as §1, §2

[4] = tested on: S. pneumoniae; type: cell-based, Streptococcus pneumoniae; settings: for Overall EP: proportion of the 60 pneumococcal isolates inhibited within the MIC range
Source text: as §1, §2

[5] = tested on: E. cloaceae; type: cell-based, E. cloacae; settings: Gram-negative, clinical isolate; broth microdilution, CAMHB, peptides 1.96–250 μg/ml
Source text: as §1, §2
(§3) The broad spectrum antibacterial activity of the peptides against a panel of eight clinically important bacteria was also determined, this includes S. aureus ATCC 25923, E. coli ATCC 25922, P. aeruginosa ATCC 15442, A. baumanii ATCC 15308, and one clinical isolate each for MRSA, E. cloacae, Citrobacter spp., and K. pneumoniae.

[6] = tested on: S. aureus ATCC 25923; type: cell-based; settings: Gram-positive; broth microdilution, CAMHB, peptides 1.96–250 μg/ml
Source text: as §1, §2, §3

[7] = tested on: Citrobacter spp.; type: cell-based; settings: Gram-negative, clinical isolate; broth microdilution, CAMHB, peptides 1.96–250 μg/ml
Source text: as §1, §2, §3

[8] = tested on: multiple gram-positive and gram-negative bacteria; type: cell-based; settings: range: DM3 against seven bacteria; DM4 and DM5 apart from higher MICs against E. cloaceae, K. pneumoniae, S. aureus
Source text: as §1, §2, §3

[9] = tested on: P. aeruginosa ATCC 15442; type: cell-based; settings: Gram-negative; broth microdilution, CAMHB, peptides 1.96–250 μg/ml
Source text: as §1, §2, §3

[10] = tested on: E. coli ATCC 25922; type: cell-based; settings: Gram-negative; broth microdilution, CAMHB, peptides 1.96–250 μg/ml
Source text: as §1, §2, §3

[11] = tested on: NL20 cell line; assay: Cytotoxicity against human cell lines (CellTiter 96 AQueous); type: cell-based; settings: for IC50, NL20 cell line, 24 hrs / IC50, NL20 cell line, 48 hrs / IC50, NL20 cell line, 72 hrs: concentration reducing cell viability to 50%, 2% FBS medium, OD 490 nm, mean ± SD of three independent experiments; for Imax, NL20 cell line, 24 hrs / Imax, NL20 cell line, 48 hrs / Imax, NL20 cell line, 72 hrs: percentage cell viability at the highest concentration (peptides 250 μg/ml; PEN 4 μg/ml), mean ± SD
Description: (§4) Both the NL20 human lung bronchial normal epithelial cell line and the A549 human lung alveolar adenocarcinoma epithelial cell line were used for cell cytotoxicity tests. Besides investigating the cytotoxicity of peptides, differences in cell viability between the two cell lines can be used to evaluate the cell line selectivity and to assess potential anticancer potential of the peptides. NL20 cell line was grown in Ham's F12 medium and A549 cell line was grown in Roswell Park Memorial Institute medium. Both media were supplemented with fetal bovine serum to 10% (v/v) as growth medium or 2% (v/v) as maintenance medium in cell cytotoxicity testing. The assay was performed as described by Lee et al.[26]. NL20 cells was seeded overnight at 3 × 10^4 cells/well in 96-well cell culture-treated flat bottom microtiter plate and treated with serial dilutions of peptide at a final concentration of 1.95–250 μg/ml. PEN was tested from 0.03–4 μg/ml, the same range used to classify the susceptibility of pneumococcal isolates in this study. Test using A549 cells followed the same procedures with 1 × 10^4 cells/well. Plates were incubated at 37°C under 5% CO2 for 24, 48, and 72 hrs. Cell viability was detected by using CellTiter 96® AQueous Non-Radioactive Cell Proliferation assay (Promega, USA) and the colorimetric changes were read with Glomax multidetection system (Promega, USA) at OD 490 nm. Results were pooled from three independent experiments and expressed as mean ± SD. […] Imax was the percentage of cell viable treated with peptides/PEN at the maximum concentration as defined throughout this study (all peptides 250 μg/ml, PEN 4 μg/ml).

[12] = tested on: A549 cell line; assay: as above; type: cell-based; settings: for IC50, A549 cell line, 24 hrs / IC50, A549 cell line, 48 hrs / IC50, A549 cell line, 72 hrs: concentration reducing cell viability to 50%, 2% FBS medium, OD 490 nm, mean ± SD of three independent experiments
Description: as §4

[13] = percentage cell viability at the highest concentration (peptides 250 μg/ml; PEN 4 μg/ml), mean ± SD
[14] = bound stated in text for 24, 48 and 72 hrs together

| Substance | MIC, PRSP [1] [µg/mL] | EP %, PRSP [1] | MIC, PSSP [2] [µg/mL] | EP %, PSSP [2] | MIC, PISP [3] [µg/mL] | EP %, PISP [3] | Overall MIC [4] [µg/mL] | Overall EP [4] [%] | MIC, E. cloaceae [5] [µg/mL] | MIC, S. aureus ATCC 25923 [6] [µg/mL] | MIC, Citrobacter spp. [7] [µg/mL] | MIC, P. aeruginosa ATCC 15442 [9] [µg/mL] | MIC, E. coli ATCC 25922 [10] [µg/mL] | IC50, NL20 cell line, 24 hrs [11] [µg/mL] | IC50, NL20 cell line, 48 hrs [11] [µg/mL] | IC50, NL20 cell line, 72 hrs [11] [µg/mL] | Imax, NL20 cell line, 24 hrs [11] [%] | Imax, NL20 cell line, 48 hrs [11] [%] | Imax, NL20 cell line, 72 hrs [11] [%] | IC50, A549 cell line, 24 hrs [12] [µg/mL] | also measured |
| --- | --- | --- | --- | --- | --- | --- | --- | --- | --- | --- | --- | --- | --- | --- | --- | --- | --- | --- | --- | --- | --- |
| GLFDIWKKWRWRR-NH2 [DM4] | 31.3 to 125 | (100.0) % | 15.63 to 125 | (100.0) % | 15.63 to 125 | (100.0) % | 15.63 to 125 | 100.0 | 250 | 62.5 | 31.3 | 31.3 | 62.5 | 160.2 ± 11.8 | 167.3 ± 5.9 | 205.0 ± 7.0 | 6.9 ± 6.8 | 5.9 ± 2.5 | 30.2 ± 2.9 | 93.3 ± 5.1 | antibacterial MIC range over the bacterial panel [8]: 31.3 to 62.5 µg/mL; IC50 of NL20 cells higher than A549 cells by, 24 hrs ([11]; difference IC50 NL20 minus IC50 A549, 24 hrs): 66.9 µg/mL; IC50 of NL20 cells higher than A549 cells by, 48 hrs ([11]; difference IC50 NL20 minus IC50 A549, 48 hrs): 64.3 µg/mL; IC50 of NL20 cells higher than A549 cells by, 72 hrs ([11]; difference IC50 NL20 minus IC50 A549, 72 hrs): 97.5 µg/mL; IC50, A549 cell line, 48 hrs [12]: 103.0 ± 17.5 µg/mL; IC50, A549 cell line, 72 hrs ([12]; 72 hrs): 107.5 ± 16.3 µg/mL; Imax, A549 cell line, 24 hrs [12, 13]: 8.5 ± 3.8%; Imax, A549 cell line, 48 hrs [12, 13]: 8.9 ± 1.4% |
| GLFDKWAWWRWRR-NH2 [DM1] | 31.3 to 125 | (100.0) % | 62.5 to 250 | (100.0) % | 31.3 to 125 | (100.0) % | 31.3 to 250 | 100.0 | 125 | 125 | 31.3 | 125 | 62.5 | 221.8 ± 7.8 | 235.7 ± 12.9 | 242.2 ± 7.3 | 35.3 ± 6.6 | 42.2 ± 8.6 | 45.9 ± 4.3 | 215.3 ± 19.7 | IC50 against NL20 cell line, over all time points [11, 14]: > 220 µg/mL; IC50 against A549 cell line, over all time points [12, 14]: ≥ 195.0 µg/mL; IC50, A549 cell line, 48 hrs [12]: 195.0 ± 25.2 µg/mL; IC50, A549 cell line, 72 hrs ([12]; 72 hrs): >250 µg/mL; Imax, A549 cell line, 24 hrs [12, 13]: 38.6 ± 6.2%; Imax, A549 cell line, 48 hrs [12, 13]: 39.8 ± 7.7%; Imax, A549 cell line, 72 hrs ([12]; percentage cell viability at the highest concentration (peptides 250 μg/ml; PEN 4 μg/ml), 72 hrs, mean ± SD): 66.2 ± 7.2% |

— paper PMC4434909, “In vitro properties of designed antimicrobial peptides that exhibit potent antipneumococcal activity and produces synergism in combination with penicillin” (Scientific Reports, 2015)
